According to article PMC8037182, “Solvothermal Synthesis of Multiple Dihydropyrimidinones at a Time as Inhibitors of Eg5” (Molecules, 2021):

Experiments:
[1] = tested on: T24 cell line; assay: Cytotoxicity MTS assay, T24 cell line; assay type: cell-based; settings: for IC50: MTS assay, 24 h exposure; for OD490 Mean / OD490 Well 1 / OD490 Well 2 / OD490 Well 3: T24 cell line
Procedure: (§1) The positive compounds (IC50 < 100 μM) obtained from the primary Eg5 motor protein ATPase assay were tested for antiproliferative activity in vitro against Caco-2 cell line, Hela cell line, L929 cell line and T24 cell line by performing MTS assay. Cells were introduced into 96-well plates at a density of 1000 cells per well. After 24 h incubation, the cells were exposed with compounds at final concentrations ranging from 0.5 to 100 µM for 24 h. DMSO was used at a final concentration of 0.025% as blank control, monastrol was used as the positive control. Then 20 µL (CellTiter 96® AQueous One Solution Promega, Madison, WI, USA) reagent was added in each well. After 2 h at 37 °C in a 80% humidified, 5% CO2 atmosphere, the absorbance at 490 nm was recorded using a microplate reader (BIO-RAD iMark^TM). The results were obtained in three independent duplicate experiments. The primary data were shown in Supplementary Materials Tables S4–S7. The IC50 values for these compounds were calculated from a non-linear regression graph plotted between the percentage of cell viability and concentration with SPSS17.0 software.

[2] = tested on: L929 cell line; assay: Cytotoxicity MTS assay, L929 cell line; assay type: cell-based; settings: for OD490 values, Mean / OD490 values, Well 1 / OD490 values, Well 2 / OD490 values, Well 3: L929 cell line; for IC50: MTS assay, 24 h exposure, ordinary fibroblast, not cancer cells
Procedure: as §1

## CCOC(=O)c1c(C2NC(=O)NC(C)=C2C(=O)Nc2ccccc2OC)[nH]c(C(=O)OC)c1C (stereo not shown) [D1]
[1]
  IC50: 130 µM
[1]; 0.5μM, first assay
  OD490 Mean: 1.7953
  OD490 Well 1: 1.9580
  OD490 Well 2: 1.8859
  OD490 Well 3: 1.5421
[1]; 0.5μM, second assay
  OD490 Mean: 1.6618
  OD490 Well 1: 1.6321
  OD490 Well 2: 1.6547
  OD490 Well 3: 1.6987
[1]; 0.5μM, third assay
  OD490 Mean: 1.6883
  OD490 Well 1: 1.6325
  OD490 Well 2: 1.6625
  OD490 Well 3: 1.7698
[1]; 1μM, first assay
  OD490 Mean: 1.8122
  OD490 Well 1: 1.9288
  OD490 Well 2: 1.8729
  OD490 Well 3: 1.6348
[1]; 1μM, second assay
  OD490 Mean: 1.5761
  OD490 Well 1: 1.5621
  OD490 Well 2: 1.7412
  OD490 Well 3: 1.4251
[1]; 1μM, third assay
  OD490 Mean: 1.7342
  OD490 Well 1: 1.7236
  OD490 Well 2: 1.7425
  OD490 Well 3: 1.7365
[1]; 10μM, first assay
  OD490 Mean: 1.8792
  OD490 Well 1: 2.1723
  OD490 Well 2: 1.7790
  OD490 Well 3: 1.6864
[1]; 10μM, second assay
  OD490 Mean: 1.7434
  OD490 Well 1: 1.9658
  OD490 Well 2: 1.6625
  OD490 Well 3: 1.6020
[1]; 10μM, third assay
  OD490 Mean: 1.7548
  OD490 Well 1: 1.7768
  OD490 Well 2: 1.8524
  OD490 Well 3: 1.6352
[1]; 25μM, first assay
  OD490 Mean: 1.7549
  OD490 Well 1: 1.8700
  OD490 Well 2: 1.7393
  OD490 Well 3: 1.6554
[1]; 25μM, second assay
  OD490 Mean: 1.7221
  OD490 Well 1: 1.6685
  OD490 Well 2: 1.7236
  OD490 Well 3: 1.7741
[1]; 25μM, third assay
  OD490 Mean: 1.8268
  OD490 Well 1: 1.7747
  OD490 Well 2: 1.7535
  OD490 Well 3: 1.9522
[1]; 50μM, first assay
  OD490 Mean: 1.5187
  OD490 Well 1: 1.4408
  OD490 Well 2: 1.5156
  OD490 Well 3: 1.5997
[1]; 50μM, second assay
  OD490 Mean: 1.5158
  OD490 Well 1: 1.5365
  OD490 Well 2: 1.5214
  OD490 Well 3: 1.4896
[1]; 50μM, third assay
  OD490 Mean: 1.4458
  OD490 Well 1: 1.4214
  OD490 Well 2: 1.4823
  OD490 Well 3: 1.4336
[1]; 100μM, first assay
  OD490 Mean: 1.4345
  OD490 Well 1: 1.4729
  OD490 Well 2: 1.3331
  OD490 Well 3: 1.4975
[1]; 100μM, second assay
  OD490 Mean: 1.3859
  OD490 Well 1: 1.3654
  OD490 Well 2: 1.5687
  OD490 Well 3: 1.2235
[1]; 100μM, third assay
  OD490 Mean: 1.3345
  OD490 Well 1: 1.3553
  OD490 Well 2: 1.4058
  OD490 Well 3: 1.2423
[2]; 0.5μM, first assay
  OD490 values, Mean: 1.3706
  OD490 values, Well 1: 1.4101
  OD490 values, Well 2: 1.3370
  OD490 values, Well 3: 1.3648
[2]; 0.5μM, second assay
  OD490 values, Mean: 1.7900
  OD490 values, Well 1: 1.7354
  OD490 values, Well 2: 1.9532
  OD490 values, Well 3: 1.6814
[2]; 0.5μM, third assay
  OD490 values, Mean: 1.6902
  OD490 values, Well 1: 1.6425
  OD490 values, Well 2: 1.7433
  OD490 values, Well 3: 1.6847
[2]; 1μM, first assay
  OD490 values, Mean: 1.3549
  OD490 values, Well 1: 1.3334
  OD490 values, Well 2: 1.3850
  OD490 values, Well 3: 1.3462
[2]; 1μM, second assay
  OD490 values, Mean: 1.7547
  OD490 values, Well 1: 1.7965
  OD490 values, Well 2: 1.7320
  OD490 values, Well 3: 1.7355
[2]; 1μM, third assay
  OD490 values, Mean: 1.7249
  OD490 values, Well 1: 1.7365
  OD490 values, Well 2: 1.7452
  OD490 values, Well 3: 1.6930
[2]; 10μM, first assay
  OD490 values, Mean: 1.3153
  OD490 values, Well 1: 1.3870
  OD490 values, Well 2: 1.3090
  OD490 values, Well 3: 1.2498
[2]; 10μM, second assay
  OD490 values, Mean: 1.7648
  OD490 values, Well 1: 1.6895
  OD490 values, Well 2: 1.7985
  OD490 values, Well 3: 1.8063
[2]; 10μM, third assay
  OD490 values, Mean: 1.7158
  OD490 values, Well 1: 1.7235
  OD490 values, Well 2: 1.7253
  OD490 values, Well 3: 1.6985
[2]; 25μM, first assay
  OD490 values, Mean: 1.2680
  OD490 values, Well 1: 1.2444
  OD490 values, Well 2: 1.2849
  OD490 values, Well 3: 1.2747
[2]; 25μM, second assay
  OD490 values, Mean: 1.6159
  OD490 values, Well 1: 1.6525
  OD490 values, Well 2: 1.5652
  OD490 values, Well 3: 1.6301
[2]; 25μM, third assay
  OD490 values, Mean: 1.4383
  OD490 values, Well 1: 1.5307
  OD490 values, Well 2: 1.3321
  OD490 values, Well 3: 1.4521
[2]; 50μM, first assay
  OD490 values, Mean: 1.2064
  OD490 values, Well 1: 1.2251
  OD490 values, Well 2: 1.1315
  OD490 values, Well 3: 1.2627
[2]; 50μM, second assay
  OD490 values, Mean: 1.4454
  OD490 values, Well 1: 1.4685
  OD490 values, Well 2: 1.3855
  OD490 values, Well 3: 1.4822
[2]; 50μM, third assay
  OD490 values, Mean: 1.3084
  OD490 values, Well 1: 1.3124
  OD490 values, Well 2: 1.3165
  OD490 values, Well 3: 1.2962
[2]; 100μM, first assay
  OD490 values, Mean: 1.1038
  OD490 values, Well 1: 1.1234
  OD490 values, Well 2: 1.0461
  OD490 values, Well 3: 1.1419
[2]; 100μM, second assay
  OD490 values, Mean: 1.2865
  OD490 values, Well 1: 1.2022
  OD490 values, Well 2: 1.2699
  OD490 values, Well 3: 1.3874
[2]; 100μM, third assay
  OD490 values, Mean: 1.3217
  OD490 values, Well 1: 1.4554
  OD490 values, Well 2: 1.2165
  OD490 values, Well 3: 1.2933
[2]
  IC50: 125 µM

## CCOC(=O)c1c(C2NC(=O)NC(C)=C2C(=O)Nc2ccccc2C)[nH]c(C(=O)OC)c1C (stereo not shown) [D2]
[1]
  IC50: > 150 µM
[1]; 0.5μM, first assay
  OD490 Mean: 1.8524
  OD490 Well 1: 1.8720
  OD490 Well 2: 1.7367
  OD490 Well 3: 1.9486
[1]; 0.5μM, second assay
  OD490 Mean: 1.7337
  OD490 Well 1: 1.7425
  OD490 Well 2: 1.7320
  OD490 Well 3: 1.7265
[1]; 1μM, first assay
  OD490 Mean: 1.8992
  OD490 Well 1: 1.8529
  OD490 Well 2: 2.1141
  OD490 Well 3: 1.7306
[1]; 1μM, second assay
  OD490 Mean: 1.7313
  OD490 Well 1: 1.6985
  OD490 Well 2: 1.7321
  OD490 Well 3: 1.7632
[1]; 10μM, first assay
  OD490 Mean: 1.7422
  OD490 Well 1: 1.5585
  OD490 Well 2: 1.7096
  OD490 Well 3: 1.9584
[1]; 10μM, second assay
  OD490 Mean: 1.7005
  OD490 Well 1: 1.6985
  OD490 Well 2: 1.7032
  OD490 Well 3: 1.6999
[1]; 25μM, first assay
  OD490 Mean: 1.5770
  OD490 Well 1: 1.7779
  OD490 Well 2: 1.7471
  OD490 Well 3: 1.2060
[1]; 25μM, second assay
  OD490 Mean: 1.7524
  OD490 Well 1: 1.7747
  OD490 Well 2: 1.7842
  OD490 Well 3: 1.6982
[1]; 50μM, first assay
  OD490 Mean: 1.5326
  OD490 Well 1: 1.7713
  OD490 Well 2: 1.4256
  OD490 Well 3: 1.4009
[1]; 50μM, second assay
  OD490 Mean: 1.6946
  OD490 Well 1: 1.6524
  OD490 Well 2: 1.6895
  OD490 Well 3: 1.7420
[1]; 100μM, first assay
  OD490 Mean: 1.5388
  OD490 Well 1: 1.4456
  OD490 Well 2: 1.6062
  OD490 Well 3: 1.5646
[1]; 100μM, second assay
  OD490 Mean: 1.4712
  OD490 Well 1: 1.4274
  OD490 Well 2: 1.5020
  OD490 Well 3: 1.4842
[2]; 0.5μM, first assay
  OD490 values, Mean: 1.3610
  OD490 values, Well 1: 1.3640
  OD490 values, Well 2: 1.3358
  OD490 values, Well 3: 1.3832
[2]; 1μM, first assay
  OD490 values, Mean: 1.4199
  OD490 values, Well 1: 1.4170
  OD490 values, Well 2: 1.4018
  OD490 values, Well 3: 1.4410
[2]; 10μM, first assay
  OD490 values, Mean: 1.4901
  OD490 values, Well 1: 1.4578
  OD490 values, Well 2: 1.4940
  OD490 values, Well 3: 1.5185
[2]; 25μM, first assay
  OD490 values, Mean: 1.5070
  OD490 values, Well 1: 1.5039
  OD490 values, Well 2: 1.5321
  OD490 values, Well 3: 1.4850
[2]; 50μM, first assay
  OD490 values, Mean: 1.4864
  OD490 values, Well 1: 1.5650
  OD490 values, Well 2: 1.4275
  OD490 values, Well 3: 1.4667
[2]; 100μM, first assay
  OD490 values, Mean: 1.2316
  OD490 values, Well 1: 1.2364
  OD490 values, Well 2: 1.1967
  OD490 values, Well 3: 1.2618
[2]
  IC50: > 150 µM
